From publication PMC12648443, “Modifications of NU-9, a potent protein aggregation inhibitor. Properties and activity in a cellular model of amyotrophic lateral sclerosis” (Bioorganic chemistry, 2025) come the findings set out here.

The experiment relates to HT22 hippocampal cells. Put plainly: DAPRed autophagy dye live cell imaging. The experiment is classed as cell-based, mouse. As to conditions: 3 μM, 5 h treatment, bafilomycin 0.1 μM in the last 3 h. The procedure:
HT22 immortalized mouse hippocampal neuronal cell line was maintained in DMEM supplemented with 10% FBS and 1% penicillin-streptomycin under standard conditions (37 °C, 5% CO2). On the day before the experiment, HT22 cells were transferred to a sterile poly-D-lysine-coated Nunc™ Lab-Tek™ II Chambered Coverglass (8 wells; Thermo Fisher Sci. cat. 155,409) at a concentration of 40,000 cells/300 μL of media in each well and incubated overnight at 37 °C. Stock solutions of Torin-1 (10 mM) and 20 (10 mM) were prepared in DMSO and then diluted in media to obtain the final treatment solutions at 0.2 and 3 μM, respectively. The media was removed, the cells were quickly washed with 1×PBS solution, and fresh media containing the compounds or the DMSO (0.1 % v/v) were transferred to the wells. The plates were incubated for 2 h. The media was removed, and after washing once with 1×PBS, fresh media containing Bafilomycin (0.1 μM), DAPRed dye (0.25 μM) and Hoescht 33,342 (55 μg/mL) was added to the wells and the cells were incubated for 3 h at 37 °C. […] Puncta structures >0.2 μm were then identified using Otsu thresholding and the results represented as particles per cell for each set of images analyzed. […] The statistical differences between two or more groups were determined by One-way ANOVA followed by Sidak post-hoc multiple-comparison test. […]

`CC(C)(Oc1cc(C(F)(F)F)cc(C(F)(F)F)c1)C1CC(=O)CC(=O)C1` [Compound 20, 5-(2-(3,5-bis(trifluoromethyl)phenoxy)propan-2-yl)cyclohexane-1,3-dione]: the “DAPRed fluorescence signal (autophagy flux) compared to vehicle” value is on record as “increasing DAPRed fluorescence signal”.
